Measurements reported in ChEMBL document CHEMBL2057064, “Activation of human RNase L by 2'- and 5'-O-methylphosphonate-modified oligoadenylates” (Bioorg Med Chem Lett, 2012).
Calls of active or inactive are those of the source. The rule behind the calls is not given here.

Key:
[1] = biological target: T1, 2-5A-dependent ribonuclease (Homo sapiens, UniProt Q05823); assay: (§1) Activation of human RNase L expressed in Escherichia coli BL21 (DE3) cells assessed as RNA cleavage using Cy5-rC11-UU-C7-BHQ2 as substrate by FRET assay
T1 sequence (Q05823 whole entry): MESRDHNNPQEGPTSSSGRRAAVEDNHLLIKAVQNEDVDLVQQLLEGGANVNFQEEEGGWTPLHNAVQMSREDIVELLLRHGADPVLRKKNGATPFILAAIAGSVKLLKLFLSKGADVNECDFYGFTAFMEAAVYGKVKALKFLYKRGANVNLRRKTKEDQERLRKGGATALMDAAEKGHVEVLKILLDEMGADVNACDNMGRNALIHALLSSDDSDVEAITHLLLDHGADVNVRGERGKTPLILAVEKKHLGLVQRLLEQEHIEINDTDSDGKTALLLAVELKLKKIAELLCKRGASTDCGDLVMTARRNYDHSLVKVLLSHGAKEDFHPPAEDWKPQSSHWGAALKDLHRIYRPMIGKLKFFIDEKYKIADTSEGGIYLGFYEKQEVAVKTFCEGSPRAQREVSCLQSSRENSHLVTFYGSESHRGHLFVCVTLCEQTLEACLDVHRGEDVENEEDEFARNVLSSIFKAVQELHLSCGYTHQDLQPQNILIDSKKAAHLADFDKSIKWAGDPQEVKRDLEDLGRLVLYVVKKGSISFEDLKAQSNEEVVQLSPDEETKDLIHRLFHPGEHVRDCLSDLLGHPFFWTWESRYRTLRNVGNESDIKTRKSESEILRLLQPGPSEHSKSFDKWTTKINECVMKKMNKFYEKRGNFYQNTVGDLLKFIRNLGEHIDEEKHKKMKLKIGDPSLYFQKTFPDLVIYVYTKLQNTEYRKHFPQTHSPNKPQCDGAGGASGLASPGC

[2] = biological target: T2, 2-5A-dependent ribonuclease (Homo sapiens) (UniProt Q05823); assay: as §1
T2 sequence (whole entry): T1 sequence (Q05823 whole entry)

- EC50 [1]: 1000 nM
- Activity [2]: Active
Compound: Nc1ncnc2c1ncn2[C@@H]1O[C@H](COP(=O)(O)O[C@@H]2[C@@H](O)[C@@H](COCP(=O)(O)O[C@@H]3[C@H](O)[C@@H](COP(=O)(O)O[C@@H]4[C@H](O)[C@@H](COP(=O)(O)O)O[C@H]4n4cnc5c(N)ncnc54)O[C@H]3n3cnc4c(N)ncnc43)O[C@H]2n2cnc3c(N)ncnc32)[C@@H](O)[C@H]1O
